Experimental data published in US9695155B2, “Herbicidal substituted pyrimidinyloxy benzene compounds” (E. I. DU PONT DE NEMOURS AND COMPANY, priority 2013, dated 2017).

How the values were obtained:
hardstem bulrush = experiment: Test G flood (paddy water application); type: in vivo, Scirpus juncoides; conditions: after 21 days, scale 0 to 100, 0 no effect, 100 complete control
Source text: (§1) Three plastic pots (ca. 16-cm diameter) per rate were partially filled with sterilized Tama silt loam soil comprising a 35:50:15 ratio of sand, silt and clay and 2.6% organic matter. Separate plantings for each of the three pots were as follows. Seeds from the U.S. of monochoria (Monochoria vaginalis), sedge, umbrella (small-flower umbrella sedge, Cyperus difformis), hardstem bulrush (Scirpus juncoides), and redstem (purple redstem, Ammannia coccinea), were planted into one 16-cm pot for each rate. Seeds from the U.S. of rice flatsedge (Cyperus iria), bearded sprangletop (Leptochloa fascicularis), one stand of 9 or 10 water seeded rice seedlings (Oryza sativa cv. ‘Japonica—M202’), and two stands of 3 or 4 transplanted rice seedlings (Oryza sativa cv. ‘Japonica—M202’) were planted into one 16-cm pot for each rate. Seeds from the U.S. of barnyardgrass (Echinochloa crus-galli), and late watergrass (Echinochloa oryzicola) were planted into one 16-cm pot for each rate. Plantings were sequential so that crop and weed species were at the 2.0 to 2.5-leaf stage at time of treatment.
(§2) Potted plants were grown in a greenhouse with day/night temperature settings of 30/27° C., and supplemental balanced lighting was provided to maintain a 16-hour photoperiod. Test pots were maintained in the greenhouse until test completion.
(§3) At time of treatment, test pots were flooded to 3 cm above the soil surface, treated by application of test compounds directly to the paddy water, and then maintained at that water depth for the duration of the test. Effects of treatments on rice and weeds were visually evaluated by comparison to untreated controls after 21 days. Plant response ratings, summarized in Table G, are based on a scale of 0 to 100 where 0 is no effect and 100 is complete control. A dash (-) response means no test result.

Russian thistle = experiment: Test C preemergence; type: in vivo, Salsola kali; conditions: for Russian Thistle plant response rating: preemergence, scale 0 (no effect) to 100 (complete control)
Source text: (§4) Seeds of plant species selected from blackgrass (Alopecurus myosuroides), Italian ryegrass (Lolium multiflorum), wheat, winter (winter wheat, Triticum aestivum), galium (catchweed bedstraw, Galium aparine), corn (Zea mays), large (Lg) crabgrass (Digitaria sanguinalis), giant foxtail (Setaria faberii), johnsongrass (Sorghum halepense), lambsquarters (Chenopodium album), morningglory (Ipomoea coccinea), yellow nutsedge (Cyperus esculentus), pigweed (Amaranthus retroflexus), ragweed (common ragweed, Ambrosia elatior), soybean (Glycine max), barnyardgrass (Echinochloa crus-galli), oilseed rape (Brassica napus), waterhemp (common waterhemp, Amaranthus rudis), kochia (Kochia scoparia), wild oat (Avena fatua), surinam grass (Brachiaria decumbens), foxtail, green (green foxtail, Setaria viridis), goosegrass (Eleusine indica), bromegrass, downy (downy bromegrass, Bromus tectorum), nightshade (eastern black nightshade, Solanum ptycanthum), cocklebur (common cocklebur, Xanthium strumarium), cupgrass, woolly (woolly cupgrass, Eriochloa villosa), bermudagrass (Cynodon dactylon), sunflower, (common oilseed sunflower, Helianthus annuus), Russian thistle (Salsola kali), and velvetleaf (Abutilon theophrasti) were planted into a blend of loam soil and sand and treated preemergence with test chemicals formulated in a non-phytotoxic solvent mixture which included a surfactant.
(§5) At the same time, plants selected from these crop and weed species and also barley, winter (winter barley, Hordeum vulgare), windgrass (Apera spica-venti), chickweed (common chickweed, Stellaria media), deadnettle (henbit deadnettle, Lamium amplexicaule), and canarygrass (littleseed canarygrass, Phalaris minor) were planted in pots containing Redi-Earth® planting medium (Scotts Company, 14111 Scottslawn Road, Marysville, Ohio 43041) comprising spaghnum peat moss, vermiculite, wetting agent and starter nutrients and treated with postemergence applications of test chemicals formulated in the same manner. Plants ranged in height from 2 to 18 cm (1- to 4-leaf stage) for postemergence treatments. Treated plants and controls were maintained in a greenhouse for 13 to 15 days, after which time all species were compared to controls and visually evaluated. Plant response ratings, summarized in Table C, are based on a scale of 0 to 100 where 0 is no effect and 100 is complete control. A dash (-) response means no test result.

bermudagrass = experiment: Test C preemergence; type: in vivo, Cynodon dactylon; conditions: for Bermudagrass plant response rating: preemergence, scale 0 (no effect) to 100 (complete control)
Source text: as §4, §5

surinam grass = experiment: Test C preemergence; type: in vivo, Brachiaria decumbens; conditions: for Surinam Grass plant response rating: preemergence, scale 0 (no effect) to 100 (complete control)
Source text: as §4, §5

barnyardgrass = experiment: Test G flood (paddy water application); type: in vivo, Echinochloa crus-galli; conditions: after 21 days, scale 0 to 100, 0 no effect, 100 complete control
Source text: as §1, §2, §3

goosegrass = experiment: Test C postemergence; type: in vivo, Eleusine indica; conditions: for Plant response rating (0 to 100), Goosegrass: postemergence; for Plant response rating, Goosegrass: Postemergence, scale 0 to 100 (0 no effect, 100 complete control)
Summary of the method: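 Greenhouse herbicide screen. Pre: seeded loam/sand, sprayed at planting. Post: 1–4 leaf plants (2–18 cm) in peat-based mix. Formulation: solvent mixture + surfactant, non-phytotoxic. Readout: visual % control vs untreated, 13–15 d; dash = not tested.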

canarygrass = experiment: Test C postemergence; type: in vivo, Phalaris minor; conditions: for Plant response rating (0 to 100), Canarygrass: postemergence; for Plant response rating, Canarygrass: Postemergence, scale 0 to 100 (0 no effect, 100 complete control)
Source text: as §4, §5

cupgrass, woolly = experiment: Test C preemergence; type: in vivo, Eriochloa villosa; conditions: for Cupgrass, Woolly plant response rating: preemergence, scale 0 (no effect) to 100 (complete control)
Source text: as §4, §5

bromegrass, downy = experiment: Test C preemergence; type: in vivo, Bromus tectorum; conditions: for Bromegrass, Downy plant response rating: preemergence, scale 0 (no effect) to 100 (complete control)
Source text: as §4, §5

cocklebur = experiment: Test C preemergence; type: in vivo, Xanthium strumarium; conditions: for Cocklebur plant response rating: preemergence, scale 0 (no effect) to 100 (complete control)
Source text: as §4, §5

sedge, umbrella = experiment: Test G flood (paddy water application); type: in vivo, Cyperus difformis; conditions: after 21 days, scale 0 to 100, 0 no effect, 100 complete control
Source text: as §1, §2, §3

monochoria = experiment: Test G flood (paddy water application); type: in vivo, Monochoria vaginalis; conditions: after 21 days, scale 0 to 100, 0 no effect, 100 complete control
Source text: as §1, §2, §3

wild oat = experiment: Test C preemergence; type: in vivo, Avena fatua; conditions: for Oat, Wild plant response rating: preemergence, scale 0 (no effect) to 100 (complete control)
Source text: as §4, §5

[1] = Preemergence, 31 g ai/ha, scale 0 to 100, 0 no effect, 100 complete control

## FC(F)(F)c1cnn(-c2ccccc2Oc2ncc(Cl)cn2)c1 [Compound 16]
Hardstem bulrush; 32 g ai/ha
  Plant response rating, Bulrush, Hardstem: 40
Hardstem bulrush; 64 g ai/ha
  Plant response rating, Bulrush, Hardstem: 50
Hardstem bulrush; 125 g ai/ha
  Plant response rating, Bulrush, Hardstem: 65
Hardstem bulrush; 250 g ai/ha
  Plant response rating, Bulrush, Hardstem: 80
Russian thistle; 62 g ai/ha
  Russian Thistle plant response rating: 80
Russian thistle; 125 g ai/ha
  Russian Thistle plant response rating: 90
Russian thistle; 250 g ai/ha
  Russian Thistle plant response rating: 90
Russian thistle; [1]
  Plant response rating, Russian Thistle: 0
bermudagrass; 62 g ai/ha
  Bermudagrass plant response rating: 98
bermudagrass; 125 g ai/ha
  Bermudagrass plant response rating: 98
bermudagrass; 250 g ai/ha
  Bermudagrass plant response rating: 98
bermudagrass; [1]
  Plant response rating, Bermudagrass: 95
Surinam grass; 62 g ai/ha
  Surinam Grass plant response rating: 100
Surinam grass; 125 g ai/ha
  Surinam Grass plant response rating: 100
Surinam grass; 250 g ai/ha
  Surinam Grass plant response rating: 100
Surinam grass; [1]
  Plant response rating, Surinam Grass: 25
barnyardgrass; 32 g ai/ha
  Plant response rating, Barnyardgrass: 0
barnyardgrass; 64 g ai/ha
  Plant response rating, Barnyardgrass: 40
barnyardgrass; 125 g ai/ha
  Plant response rating, Barnyardgrass: 100
barnyardgrass; 250 g ai/ha
  Plant response rating, Barnyardgrass: 100
goosegrass; 125 g ai/ha
  Plant response rating (0 to 100), Goosegrass: 15
goosegrass; 250 g ai/ha
  Plant response rating (0 to 100), Goosegrass: 30
goosegrass; 31 g ai/ha, 13 to 15 days
  Plant response rating, Goosegrass: 0
goosegrass; 62 g ai/ha
  Plant response rating, Goosegrass: 10
canarygrass; 125 g ai/ha
  Plant response rating (0 to 100), Canarygrass: 60
canarygrass; 250 g ai/ha
  Plant response rating (0 to 100), Canarygrass: 80
canarygrass; 31 g ai/ha, 13 to 15 days
  Plant response rating, Canarygrass: 10
canarygrass; 62 g ai/ha
  Plant response rating, Canarygrass: 30
cupgrass, woolly; 62 g ai/ha
  Cupgrass, Woolly plant response rating: 90
cupgrass, woolly; 125 g ai/ha
  Cupgrass, Woolly plant response rating: 98
cupgrass, woolly; 250 g ai/ha
  Cupgrass, Woolly plant response rating: 98
cupgrass, woolly; [1]
  Plant response rating, Cupgrass, Woolly: 75
bromegrass, downy; 62 g ai/ha
  Bromegrass, Downy plant response rating: 60
bromegrass, downy; 125 g ai/ha
  Bromegrass, Downy plant response rating: 90
bromegrass, downy; 250 g ai/ha
  Bromegrass, Downy plant response rating: 95
bromegrass, downy; [1]
  Plant response rating, Bromegrass, Downy: 30
cocklebur; 62 g ai/ha
  Cocklebur plant response rating: 5
cocklebur; 125 g ai/ha
  Cocklebur plant response rating: 5
cocklebur; 250 g ai/ha
  Cocklebur plant response rating: 20
cocklebur; [1]
  Plant response rating, Cocklebur: 0
sedge, umbrella; 32 g ai/ha
  Plant response rating, Sedge, Umbrella: 0
sedge, umbrella; 64 g ai/ha
  Plant response rating, Sedge, Umbrella: 60
sedge, umbrella; 125 g ai/ha
  Plant response rating, Sedge, Umbrella: 100
sedge, umbrella; 250 g ai/ha
  Plant response rating, Sedge, Umbrella: 100
monochoria; 32 g ai/ha
  Plant response rating, Monochoria: 95
monochoria; 64 g ai/ha
  Plant response rating, Monochoria: 95
monochoria; 125 g ai/ha
  Plant response rating, Monochoria: 100
monochoria; 250 g ai/ha
  Plant response rating, Monochoria: 100
Wild oat; 62 g ai/ha
  Oat, Wild plant response rating: 90
Wild oat; 125 g ai/ha
  Oat, Wild plant response rating: 90
Wild oat; 250 g ai/ha
  Oat, Wild plant response rating: 90
Wild oat; [1]
  Plant response rating, Oat, Wild: 50
